Assay type in all cases: cell-based
Assay [1] has as its target T1, adenosine A2a receptor (A2aR) (Homo sapiens, UniProt P29274).
T1 construct: expressed in transfected cells; host or cells: CHO-K1
Description: Inhibition of adenosine A2a receptor cAMP signaling pathway in CHO-K1/A2aR cells (HTRF cAMP dynamic 2 kit). The conditions noted are these: Table 1, 20 nM ethylcarbazole. From the text:
(§1) Test Example 1. Determination of the inhibitory activities of the compounds of the present disclosure on the adenosine A2a receptor (A2aR) cAMP signaling pathway, the adenosine A1 receptor (A1R) cAMP signaling pathway and the adenosine A3 receptor (A3R) cAMP signaling pathway.
(§2) The inhibitory activities of the compounds of the present disclosure on the adenosine A2a receptor (A2aR) cAMP signaling pathway, the adenosine A1 receptor cAMP signaling pathway and the adenosine A3 receptor cAMP signaling pathway were determined by the following methods. The experimental method is briefly described as follows:
CHO-K1/A2aR cells were cultured in DMEM/F12 medium containing 10% fetal bovine serum and 800 μg/mL Zeocin™. The cells were digested with the cell dissociation buffer during the experiment. The cells were resuspended in the HBSS buffer containing 20 mM HEPES and 0.1% bovine serum albumin and counted, and the cell density was adjusted to 10^6 cells/mL. In 384-well plates, each well was added with 5 μL of the cell suspension, and 2.5 µL of test compounds (4× concentration) formulated with the HBSS buffer containing 20 mM HEPES, 0.1% bovine serum albumin, 54 μM rolipram and 2.7 U/mL adenosine deaminase, and the plates were incubated at room temperature for 30 minutes. Each well was then added with 2.5 μL of ethylcarbazole (4× concentration) formulated with the balanced salt buffer containing 20 mM HEPES, 0.1% bovine serum albumin, 54 μM rolipram and 2.7 U/mL adenosine deaminase, and the plates were incubated at room temperature for 30 minutes. The final concentrations of the compounds were: 10000, 2000, 400, 80, 16, 3.2, 0.64, 0.128, 0.0256, 0.00512, and 0.001024 nM. The final concentration of ethylcarbazole was 20 nM. Intracellular cAMP concentration was determined with cAMP dynamic 2 kits. cAMP-d2 and Anti-cAMP—Eu-Cryptate were diluted respectively with the cAMP lysis buffer at a ratio of 1:4. Each well was added with 5 μL of the diluted cAMP-d2, followed by addition of 5 μL of the diluted Anti-cAMP—Eu-Cryptate, and the plates were incubated at room temperature in the dark for 1 hour. The HTRF signal values were read by the PHERAstar multi-function microplate reader.
Background: In TR-FRET formats the signal depends on donor and acceptor labels being close together.

Assay [2] addresses T2, adenosine A3 receptor (A3R) (Homo sapiens, UniProt P0DMS8).
T2 construct: expressed in transfected cells; host or cells: CHO-K1
T2 sequence (P0DMS8 1-318): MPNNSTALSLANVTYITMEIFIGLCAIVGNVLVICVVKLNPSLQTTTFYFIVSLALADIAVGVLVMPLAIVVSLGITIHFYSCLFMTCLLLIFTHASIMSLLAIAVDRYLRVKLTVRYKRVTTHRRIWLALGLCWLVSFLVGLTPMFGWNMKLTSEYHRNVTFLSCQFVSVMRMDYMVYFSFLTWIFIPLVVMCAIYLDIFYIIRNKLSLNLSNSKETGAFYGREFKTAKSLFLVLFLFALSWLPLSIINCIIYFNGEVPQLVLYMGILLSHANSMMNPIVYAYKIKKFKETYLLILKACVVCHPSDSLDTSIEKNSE
Description: Inhibition of adenosine A3 receptor cAMP signaling pathway in CHO-K1/A3R cells (HTRF cAMP dynamic 2 kit). The following applies: Table 3; for IC50: CHO-K1/A3R cells, cAMP, 10 μM forskolin, 5 nM 2Cl-IB-MECA; for IC50 ratio (A3R/A2aR): selectivity A3R over A2aR.
Description: as §1, §2
CHO-K1/A3R cells were cultured in DMEMIF12 medium containing 10% fetal bovine serum and 10 μg/mL puromycin. The cells were digested with the cell dissociation buffer during the experiment. The cells were resuspended in the HBSS buffer containing 20 mM HEPES and 0.1% bovine serum albumin and counted, and the cell density was adjusted to 5×10^5 cells/mL. In 384-well plates, each well was added with 12.5 μL of the cell suspension, and 6.25 μL of the test compounds (4× concentration) formulated with the HBSS buffer containing 20 mM HEPES, 0.1% bovine serum albumin, 54 μM rolipram and 2.7 U/mL adenosine deaminase, and the plates were incubated at room temperature for 30 minutes. Each well was then added with 6.25 μL of forskolin and 2Cl-IB-MECA (4× concentration) formulated with the HBSS buffer containing 20 mM HEPES, 0.1% bovine serum albumin, […] rolipram and 2.7 U/mL adenosine deaminase, and the plates were incubated at room temperature for 30 minutes. The final concentrations of the compounds were: 100000, 10000, 1000, 100, 10, 1, 0.1 and 0 nM. The final concentration of forskolin was 10 μM. The final concentration of 2Cl-IB-MECA was 5 nM. Intracellular cAMP concentration was determined with cAMP dynamic 2 kits. cAMP-d2 and Anti-cAMP—Eu-Cryptate were diluted respectively with the cAMP lysis buffer at a ratio of 1:4. Each well was added with 12.5 μL of the diluted cAMP-d2, followed by addition of 12.5 μL of the diluted Anti-cAMP—Eu-Cryptate, and the plates were incubated at room temperature in the dark for 1 hour. The HTRF signal values were read by the PHERAstar multi-function microplate reader. IC50 values for the inhibitory activities of the compounds were calculated by Graphpad Prism software, and are shown in Table 3.

The target of assay [3] is T3, adenosine A1 receptor (A1R) (Homo sapiens, UniProt P30542).
T3 construct: expressed in transfected cells; host or cells: CHO-K1
T3 sequence (P30542 1-326): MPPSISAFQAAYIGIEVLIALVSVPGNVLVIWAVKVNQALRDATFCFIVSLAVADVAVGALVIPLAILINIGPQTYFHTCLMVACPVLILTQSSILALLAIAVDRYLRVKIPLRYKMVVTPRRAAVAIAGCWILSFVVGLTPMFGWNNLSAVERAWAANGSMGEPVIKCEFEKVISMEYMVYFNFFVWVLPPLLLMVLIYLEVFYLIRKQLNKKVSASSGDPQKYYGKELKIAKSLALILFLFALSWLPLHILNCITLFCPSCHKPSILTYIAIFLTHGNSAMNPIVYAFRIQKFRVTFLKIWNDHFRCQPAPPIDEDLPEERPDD
The assay can be described thus: Inhibition of adenosine A1 receptor cAMP signaling pathway in CHO-K1/A1R cells (HTRF cAMP dynamic 2 kit). The conditions noted are these: Table 2; for IC50: CHO-K1/A1R cells, cAMP, 10 μM forskolin, 10 nM CPA; for IC50 ratio (A1R/A2aR): selectivity A1R over A2aR.
Description: as §1, §2
CHO-K1/A1R cells were cultured in DMEMIF12 medium containing 10% fetal bovine serum and 1 mg/mL G418. The cells were digested with the cell dissociation buffer during the experiment. The cells were then resuspended in the HBSS buffer containing 20 mM HEPES and 0.1% bovine serum albumin and counted, and the cell density was adjusted to 5×10^5 cells/mL. In 384-well plates, each well was added with 12.5 μL of the cell suspension, and 6.25 μL of the test compounds (4× concentration) formulated with the HBSS buffer containing 20 mM HEPES, 0.1% bovine serum albumin, 54 μM rolipram and 2.7 U/mL adenosine deaminase, and the plates were incubated at room temperature for 30 minutes. Each well was then added with 6.25 μL of forskolin and N6-cyclopentyladenosine (4× concentration) formulated with the HBSS buffer containing 20 mM HEPES, 0.1% bovine serum albumin, 54 μM rolipram and 2.7 U/mL adenosine deaminase, and the plates were incubated at room temperature for 30 minutes. The final concentrations of the compounds were: 100000, 10000, 1000, 100, 10, 1, 0.1 and 0 nM. The final concentration of forskolin was 10 μM. The final concentration of CPA was 10 nM. Intracellular cAMP concentration was determined with cAMP dynamic 2 kits. cAMP-d2 and Anti-cAMP—Eu-Cryptate were diluted respectively with the cAMP lysis buffer at a ratio of 1:4. Each well was added with 12.5 μL of the diluted cAMP-d2, followed by addition of 12.5 μL of the diluted Anti-cAMP—Eu-Cryptate, and the plates were incubated at room temperature in the dark for 1 hour. The HTRF signal values were read by the PHERAstar multi-function microplate reader.

Each structure is given as a SMILES string.

The term IC50 denotes the concentration that gives 50% inhibition.

T1 sequence (P29274 whole entry): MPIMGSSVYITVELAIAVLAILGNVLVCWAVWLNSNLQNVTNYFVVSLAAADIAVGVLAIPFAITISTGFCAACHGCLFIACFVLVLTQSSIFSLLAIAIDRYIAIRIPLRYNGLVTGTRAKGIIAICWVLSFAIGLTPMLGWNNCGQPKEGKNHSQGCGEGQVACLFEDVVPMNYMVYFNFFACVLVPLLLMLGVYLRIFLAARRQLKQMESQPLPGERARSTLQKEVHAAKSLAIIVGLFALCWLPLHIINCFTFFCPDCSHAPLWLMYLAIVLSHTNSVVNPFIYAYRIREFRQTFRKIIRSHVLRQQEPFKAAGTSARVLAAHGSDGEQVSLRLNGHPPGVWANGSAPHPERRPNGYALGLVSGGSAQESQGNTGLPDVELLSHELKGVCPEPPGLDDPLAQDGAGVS

On to `Cc1ccc(-c2nc(N)nc3c(Cc4cccc(CN5CCN(C)CC5)n4)cnn23)o1` [Example 8, 4-(5-Methylfuran-2-yl)-8-((6-((4-methylpiperazin-1-yl)methyl)pyridin-2-yl)methyl)pyrazolo[1,5-a][1,3,5]triazin-2-amine], for which, in assay [1], half-maximal inhibition (IC50) was put at 1.32 nM. In assay [2], the half-maximal inhibitory concentration (IC50) was found to be 6490 nM and the “IC50 ratio (A3R/A2aR)” value is listed as >10^3. In assay [3], the half-maximal inhibitory concentration (IC50) amounted to 943 nM and the “IC50 ratio (A1R/A2aR)” value was 714^.

Turning to `Cc1ccc(-c2nc(N)nc3c(Cc4cccc(CN5CC6COCC6C5)n4)cnn23)o1` (centres unmarked) [Example 9, 4-(5-Methylfuran-2-yl)-8-((6-((tetrahydro-1H-furo[3,4-c]pyrrol-5(3H)-yl)methyl)pyridin-2-yl)methyl)pyrazolo[1,5-a][1,3,5]triazin-2-amine], the figures for the IC50 in assay [1], in assay [2] and in assay [3] were 1.64 nM, 3370 nM and 483 nM, respectively. Besides, the “IC50 ratio (A3R/A2aR)” value in assay [2] is listed as >10^3. Also, in assay [3], the “IC50 ratio (A1R/A2aR)” value was 294^.

With `Nc1nc(-c2ccco2)n2ncc(Cc3ccccc3F)c2n1` [Example 10, 8-(2-Fluorobenzyl)-4-(furan-2-yl)pyrazolo[1,5-a][1,3,5]triazin-2-amine], the concentration for half-maximal inhibition (IC50) in assay [1] came out at 1.71 nM; in assay [2] it was 358 nM; in assay [3], 147 nM. Further, in assay [2], the “IC50 ratio (A3R/A2aR)” value was 209^. Further, in assay [3], the “IC50 ratio (A1R/A2aR)” value is listed as 86^.

Turning to `COCc1cccc(Cc2cnn3c(-c4ccc(C)o4)nc(N)nc23)n1` [Example 13, 8-((6-(Methoxymethyl)pyridin-2-yl)methyl)-4-(5-methylfuran-2-yl)pyrazolo[1,5-a][1,3,5]triazin-2-amine], 1.7 nM corresponded to half-maximal inhibition in assay [1] (IC50). Besides, in assay [2], the 50% inhibitory concentration (IC50) stood at 5500 nM and the “IC50 ratio (A3R/A2aR)” value was >10^3. In assay [3], the IC50 was found to be 1230 nM and the “IC50 ratio (A1R/A2aR)” value was 725^.

For the compound `Cc1ccc(-c2nc(N)nc3c(Cc4cccc(COCCF)n4)cnn23)o1` [Example 14, 8-((6-((2-Fluoroethoxy)methyl)pyridin-2-yl)methyl)-4-(5-methylfuran-2-yl)pyrazolo[1,5-a][1,3,5]triazin-2-amine], in assay [1], the IC50 came out at 0.68 nM. In assay [2], the IC50 worked out at 1390 nM and the “IC50 ratio (A3R/A2aR)” value was >10^3. For the same compound, in assay [3], the half-inhibitory concentration (IC50) worked out at 293 nM and the “IC50 ratio (A1R/A2aR)” value is 431^.

In the case of `Cc1ccc(-c2nc(N)nc3c(Cc4cccc(CO[C@H]5CCN(C)C5)n4)cnn23)o1` [Example 15, (S)-4-(5-Methylfuran-2-yl)-8-((6-(((1-methylpyrrolidin-3-yl)oxy)methyl)pyridin-2-yl)methyl) pyrazolo[1,5-a][1,3,5]triazin-2-amine], it took 1.83 nM to reach half-maximal inhibition in assay [1] (IC50). In addition, in assay [2], the IC50 is 8970 nM and the “IC50 ratio (A3R/A2aR)” value is >10^3. Besides, in assay [3], the IC50 is 165 nM and the “IC50 ratio (A1R/A2aR)” value was 90^.

For `Cc1ccc(-c2nc(N)nc3c(Nc4cccc(CO[C@@H]5CCOC5)n4)cnn23)o1` [Example 21, (R)-4-(5-Methylfuran-2-yl)-N^8-(6-(((tetrahydrofuran-3-yl)oxy)methyl)pyridin-2-yl)pyrazolo[1,5-a][1,3,5]triazine-2,8-diamine], the concentration for half-maximal inhibition (IC50) in assay [1] was found to be 0.4 nM; in assay [2], 1700 nM; in assay [3], 609 nM. In assay [2], the “IC50 ratio (A3R/A2aR)” value is given as >10^3. The “IC50 ratio (A1R/A2aR)” value in assay [3] is >10^3.

With `Cc1ccc(-c2nc(N)nc3c(Cc4cccc(COC5CCCC5)n4)cnn23)o1` [Example 22, 8-((6-((Cyclopentyloxy)methyl)pyridin-2-yl)methyl)-4-(5-methylfuran-2-yl)pyrazolo[1,5-a][1,3,5]triazin-2-amine], 0.57 nM corresponded to half-maximal inhibition in assay [1] (IC50). Also, in assay [2], the concentration for half-maximal inhibition (IC50) is 1050 nM and the “IC50 ratio (A3R/A2aR)” value is on record as >10^3. Moreover, in assay [3], the IC50 came out at 303 nM and the “IC50 ratio (A1R/A2aR)” value was 532^.

In turn, `Cc1ccc(-c2nc(N)nc3c(Cc4cccc(CO[C@H]5CCOC5)c4)cnn23)o1` [Example 24, (S)-4-(5-Methylfuran-2-yl)-8-(3-(((tetrahydrofuran-3-yl)oxy)methyl)benzyl)pyrazolo[1,5-a][1,3,5]triazin-2-amine] yielded a 50% inhibitory concentration (IC50) in assay [1] of 1.2 nM. In assay [2], the concentration for half-maximal inhibition (IC50) is 2040 nM and the “IC50 ratio (A3R/A2aR)” value is recorded as >10^3. Also, in assay [3], the 50% inhibitory concentration (IC50) came to 2020 nM and the “IC50 ratio (A1R/A2aR)” value was >10^3.

In the case of `Cc1ccc(-c2nc(N)nc3c(Nc4cccc(CO[C@H]5CCOC5)c4)cnn23)o1` [Example 25, (S)-4-(5-Methylfuran-2-yl)-N^8-(3-(((tetrahydrofuran-3-yl)oxy)methyl)phenyl)pyrazolo[1,5-a][1,3,5]triazine-2,8-diamine], in assay [1], 1.64 nM corresponded to half-maximal inhibition (IC50). In assay [2], half-maximal inhibition (IC50) required 8150 nM and the “IC50 ratio (A3R/A2aR)” value is on record as >10^3. Also, in assay [3], 2040 nM corresponded to half-maximal inhibition (IC50) and the “IC50 ratio (A1R/A2aR)” value was >10^3.

Source of the values: patent publication US20210032253A1, “PYRAZOLO[1,5-A][1,3,5]TRIAZINE-2-AMINE DERIVATIVE, PREPARATION METHOD THEREFOR AND MEDICAL USE THEREOF” (JIANGSU HENGRUI MEDICINE CO., LTD., priority 2018, published 2021).
